Legend:
[1] = Antioxidant activity (DPPH, in vitro); type: biochemical; settings: DPPH 0.2 mM; lactic acid bacteria suspension 1×10^8 CFU/ml; 37° C. 20 min
Method: DPPH (2,2-Diphenyl-1-picrylhydrazyl) was dissolved in ethanol to a concentration of 0.2 mM to prepare DPPH solution. Lactic acid bacteria suspension (1×10^8 CFU/ml) or vitamin C solution (1 g/ml) was added to 0.1 ml of the above DPPH solution and incubated at 37° C. for 20 min. The culture was centrifuged at 3000 rpm for 5 min to obtain a supernatant. The absorbance of the supernatant was then measured at 517 nm and the antioxidant activity of the lactic acid bacteria was calculated.

[2] = tested on: BDNF; assay: BDNF expression in SH-SY5Y cells; type: cell-based; settings: LPS 200 ng/ml; lactic acid bacteria 1×10^4 CFU/ml; 24 h
Method: (§1) SH-SY5Y cells obtained from the Korean Cell Line Bank were cultured in DMEM medium supplemented with 10% FBS and 1% antibiotics, and dispensed at 2×10^6 cells per well in a 12-well plate. Then, LPS (200 ng/ml) was added to each well along with lactic acid bacteria (1×10^4 CFU/ml) and incubated for 24 h. The cells and supernatants were collected, sonicated and centrifuged, and the amount of BDNF in the supernatant was measured by ELISA kit.

[3] = tested on: gut microbiota; assay: LPS production in gut microbiota (ELISA); type: cell-based; settings: human feces culture; lactic acid bacteria 1×10^6 CFU/mL; anaerobic 24 hr
Method: Fresh human feces were suspended in anaerobic medium (GAM, Nissui Pharmaceutical Co., Ltd., Japan) and allowed to stand for 10 min. The supernatant was diluted with 10,000-fold anaerobic medium, 0.05 mL of the dilution was transplanted into 5 mL of freshly made anaerobic medium, and lactic acid bacteria (1×10^6 CFU/mL) were implanted and incubated anaerobically for 24 hr.

[4] = tested on: Clostridium difficile; assay: Clostridium difficile proliferation in gut microbiota (PCR); type: cell-based; settings: human feces culture; lactic acid bacteria 1×10^6 CFU/mL; anaerobic 24 hr
Method: Fresh human feces were suspended in anaerobic medium (GAM, Nissui Pharmaceutical Co., Ltd., Japan) and allowed to stand for 10 min. The supernatant was diluted with 10,000-fold anaerobic medium, 0.05 mL of the dilution was transplanted into 5 mL of freshly made anaerobic medium, and lactic acid bacteria (1×10^6 CFU/mL) were implanted and incubated anaerobically for 24 hr. This culture medium was divided into two, one was centrifuged (5000 rpm, 20 minutes), the precipitated DNA was isolated using the QIAamp DNA stool mini kit (Qiagen, Germany), and Clostridium difficile (primer: forward, 5′-[…]-3′ (SEQ ID NO: 4); reverse, 5′-[…]-3′ (SEQ ID NO: 5) was quantified by PCR. The reaction product was first treated at 95° C. for 30 seconds, followed by 42 cycles of 5 seconds at 95° C. and 30 seconds at 72° C. for analysis. In addition, one culture medium was sonicated, centrifuged, and filter-sterilized, and the amount of LPS in the supernatant was measured using an ELISA kit.

[5] = tested on: TNF-α; assay: TNF-α expression in LPS-treated macrophages (ELISA); type: cell-based, C57BL/6 mice; settings: macrophages treated with lactic acid bacteria and LPS for 24 hours
Method: (§2) C57BL/6 mice (male, 6 weeks old, 20-23 g) were subjected to an intraperitoneal injection of 2 ml of sterile 4% thioglycolate solution, and after 96 hours, the mice were anesthetized and injected with 8 ml of RPMI 1640 medium through the peritoneal cavity. Then, after 5-10 minutes, the RPMI medium (macrophages) in the mouse peritoneal cavity was extracted, centrifuged at 1000 g for 10 minutes, and washed again with RPMI 1640 medium twice. Macrophages were seeded in 24-well plates at a count of 0.5×10^6 in each well, and treated with lactic acid bacteria and LPS, an inflammatory response-inducing substance, for 24 hours. TNF-α and IL-10 cytokine expression amount in the culture supernatant was then measured by ELISA Kit.

[6] = tested on: Neuropeptide Y (NPY); assay: Neuropeptide Y (NPY) expression in PC12 phaeochromocytoma cells; type: cell-based; settings: LPS 200 ng/ml; lactic acid bacteria 1×10^4 CFU/ml; 24 hr
Method: as §1, with “PC12” for “SH-SY5Y”, “1×10^6” for “2×10^6”, “hr.” for “h.”, “NPY” for “BDNF”

[7] = tested on: IL-10; assay: IL-10 expression in LPS-treated macrophages (ELISA); type: cell-based, C57BL/6 mice; settings: macrophages treated with lactic acid bacteria and LPS for 24 hours
Method: as §2

Row | Substance | Antioxidant activity [1] | SHSY5Y cell Induction of BDNF expression [2] | Gut microbiota Inhibition of LPS production [3] | Gut microbiota Inhibition of difficile bacteria proliferation [4] | Macrophage Inhibition of TNF-α expression [5] | PC12 cell Induction of NPY expression [6] | Macrophage Induction of IL-10 expression [7]
1 | Bifidobacterium catenulatum NK227 | + (weakly (+; >20-60%)) | − (not or less than 20% (−; <20%)) | + (weakly (+; >20-60%)) | + (weakly (+; >20-60%)) | + (weakly (+; >20-60%)) | + (weakly (+; >20-60%)) | + (weakly (+; >20-60%))
2 | Bifidobacterium infantis NK213 | + (weakly (+; >20-60%)) | − (not or less than 20% (−; <20%)) | − (not or less than 20% (−; <20%)) | + (weakly (+; >20-60%)) | + (weakly (+; >20-60%)) | − (not or less than 20% (−; <20%)) | + (weakly (+; >20-60%))
3 | Bifidobacterium infantis NK214 | ++ (strongly (++; >60-90%)) | − (not or less than 20% (−; <20%)) | + (weakly (+; >20-60%)) | + (weakly (+; >20-60%)) | − (not or less than 20% (−; <20%)) | + (weakly (+; >20-60%)) | − (not or less than 20% (−; <20%))
4 | Bifidobacterium infantis NK215 | ++ (strongly (++; >60-90%)) | − (not or less than 20% (−; <20%)) | + (weakly (+; >20-60%)) | + (weakly (+; >20-60%)) | + (weakly (+; >20-60%)) | + (weakly (+; >20-60%)) | + (weakly (+; >20-60%))
5 | Bifidobacterium longum NK216 | ++ (strongly (++; >60-90%)) | − (not or less than 20% (−; <20%)) | ++ (strongly (++; >60-90%)) | − (not or less than 20% (−; <20%)) | − (not or less than 20% (−; <20%)) | + (weakly (+; >20-60%)) | − (not or less than 20% (−; <20%))
6 | Bifidobacterium longum NK218 | + (weakly (+; >20-60%)) | + (weakly (+; >20-60%)) | + (weakly (+; >20-60%)) | + (weakly (+; >20-60%)) | − (not or less than 20% (−; <20%)) | + (weakly (+; >20-60%)) | − (not or less than 20% (−; <20%))
7 | Bifidobacterium pseudocatenulatum NK228 | + (weakly (+; >20-60%)) | + (weakly (+; >20-60%)) | ++ (strongly (++; >60-90%)) | − (not or less than 20% (−; <20%)) | − (not or less than 20% (−; <20%)) | + (weakly (+; >20-60%)) | − (not or less than 20% (−; <20%))
8 | Bifidobacterium pseudocatenulatum NK230 | + (weakly (+; >20-60%)) | + (weakly (+; >20-60%)) | + (weakly (+; >20-60%)) | + (weakly (+; >20-60%)) | − (not or less than 20% (−; <20%)) | + (weakly (+; >20-60%)) | − (not or less than 20% (−; <20%))
9 | Lactobacillus casei NK193 | + (weakly (+; >20-60%)) | + (weakly (+; >20-60%)) | + (weakly (+; >20-60%)) | − (not or less than 20% (−; <20%)) | + (weakly (+; >20-60%)) | − (not or less than 20% (−; <20%)) | + (weakly (+; >20-60%))
10 | Lactobacillus casei NK194 | ++ (strongly (++; >60-90%)) | + (weakly (+; >20-60%)) | + (weakly (+; >20-60%)) | + (weakly (+; >20-60%)) | − (not or less than 20% (−; <20%)) | + (weakly (+; >20-60%)) | + (weakly (+; >20-60%))
11 | Lactobacillus casei NK195 | + (weakly (+; >20-60%)) | − (not or less than 20% (−; <20%)) | − (not or less than 20% (−; <20%)) | + (weakly (+; >20-60%)) | + (weakly (+; >20-60%)) | − (not or less than 20% (−; <20%)) | + (weakly (+; >20-60%))
12 | Lactobacillus casei NK196 | ++ (strongly (++; >60-90%)) | − (not or less than 20% (−; <20%)) | + (weakly (+; >20-60%)) | + (weakly (+; >20-60%)) | − (not or less than 20% (−; <20%)) | + (weakly (+; >20-60%)) | − (not or less than 20% (−; <20%))
13 | Lactobacillus gasseri NK185 | ++ (strongly (++; >60-90%)) | − (not or less than 20% (−; <20%)) | − (not or less than 20% (−; <20%)) | + (weakly (+; >20-60%)) | + (weakly (+; >20-60%)) | + (weakly (+; >20-60%)) | + (weakly (+; >20-60%))
14 | Lactobacillus gasseri NK186 | + (weakly (+; >20-60%)) | − (not or less than 20% (−; <20%)) | + (weakly (+; >20-60%)) | + (weakly (+; >20-60%)) | + (weakly (+; >20-60%)) | − (not or less than 20% (−; <20%)) | + (weakly (+; >20-60%))
15 | Lactobacillus gasseri NK187 | + (weakly (+; >20-60%)) | + (weakly (+; >20-60%)) | + (weakly (+; >20-60%)) | + (weakly (+; >20-60%)) | + (weakly (+; >20-60%)) | − (not or less than 20% (−; <20%)) | − (not or less than 20% (−; <20%))
